Measured values reported in patent US6533767B2, “Methods for enhancing fluid flow through an obstructed vascular site, and systems and kits for use in practicing the same” (Corazon Technologies, Inc., priority 2000, dated 2003).

Columns and labels:
[1] = Solution containing surfactant and acid components, effect on cholesterol crystals; assay type: physicochemical; conditions: SDS 1%; combination with 0.1N HCl pH 1.0, isotonic (300 mOsmol)
Method: A solution of sodium dodecyl sulfate (SDS) (a.k.a. sodium lauryl sulfate) (1%) and 0.1N hydrochloric acid (pH 1.0) made isotonic (300 mOsmol) with sodium chloride was prepared and compared with a solution of sodium dodecyl sulfate solution (1%). […] This combination solution can be buffered with sodium bicarbonate (NaHCO3) in the same manner that the hydrochloric acid solution is buffered with NaHCO3, as described in the specification supra.

[2] = In vitro cholesterol dissolution; assay type: physicochemical; conditions: for effectiveness in solvating / dissolving crystalline cholesterol: 0.1 grams cholesterol in 50 mLs 1% surfactant solution; for cholesterol crystal presence or absence and crystal morphology (light microscopy): 0.1 grams cholesterol in 50 mLs surfactant solution, agitation up to 1 hour, 200x magnification, time as in value
Method: Dissolution of cholesterol was examined in different solutions of bile salts, non-ionic, and ionic surfactants. Solutions of bile salts were prepared as follows: 0.5% solutions of cholic, dehydrocholic, deoxycholic, lithocholic acids were made by dissolving 0.5 grams of the free acid powders in 100 mL H2O previously adjusted to pH=12 with sodium hydroxide. Solutions were then adjusted to pH=7.5 with HCl. 1% surfactant solutions were made by dilution of concentrated stock solutions: Benzalkonium chloride, nonoxynol-9, sodium dodecyl sulfate, were prepared immediately prior to use. Dissolution studies were performed by adding 0.1 grams cholesterol powdered crystals to 50 mLs of the above surfactants with agitation on a rocker table for 1 hour. Solutions were then examined under light microscopy 200× magnification and cholesterol crystal presence or absence and crystal morphology recorded for each solution.

[3] = In vitro thrombus removal in cadaveric femoral arteries; conditions: 1% solution, approximately 60 cc per treatment over a 10 minute interval
Method: Fresh cadaveric femoral arteries which contained soft clots partially occluding the. vessel lumen were used. […] Vessels were treated with a 1% surfactant solution of sodium dodecyl sulfate (SDS, Sigma chemicals), prepared immediately prior to use. Treatment consisted of injection of surfactant through a 35 cc male luer syringe and flow characteristics recorded.

Row | crystal dissolution ([2]; by 1 hour) | Compound | micelle formation around cholesterol crystals [1] | effectiveness in solvating / dissolving crystalline cholesterol [2] | cholesterol crystal presence or absence and crystal morphology (light microscopy) [2] | flow through vessel after treatment [3] | removal of soft thrombus [3]
1 | – | CCCCCCCCCCCCOS(=O)(=O)[O-].[Na+] [Sodium dodecyl sulfate, sodium dodecyl sulfate] | formed micelles around cholesterol crystals making the cholesterol crystals water soluble | most effective in solvating | no free crystals were observed 5 minutes after cholesterol addition | Flow was reestablished in all samples | effective in removing soft thrombus from occluded femoral arteries
2 | approximately 50% | Benzalkonium chloride | – | appeared to dissolve most of the crystalline cholesterol | still crystals apparent after 10 minutes | – | –
3 | – | nonoxynol-9 | – | – | little or no observable effect on the crystal structure | – | –
